# Test results reported in US9938273B2 (Plexxikon Inc., priority 2015, dated 2018).
# Molecular target: T1, BA/F3-FLT3-ITD + D835Y cells (Homo sapiens, UniProt P36888, D835Y, cells depend on it, form not given)
# T1 sequence (P36888 1-993 D835Y): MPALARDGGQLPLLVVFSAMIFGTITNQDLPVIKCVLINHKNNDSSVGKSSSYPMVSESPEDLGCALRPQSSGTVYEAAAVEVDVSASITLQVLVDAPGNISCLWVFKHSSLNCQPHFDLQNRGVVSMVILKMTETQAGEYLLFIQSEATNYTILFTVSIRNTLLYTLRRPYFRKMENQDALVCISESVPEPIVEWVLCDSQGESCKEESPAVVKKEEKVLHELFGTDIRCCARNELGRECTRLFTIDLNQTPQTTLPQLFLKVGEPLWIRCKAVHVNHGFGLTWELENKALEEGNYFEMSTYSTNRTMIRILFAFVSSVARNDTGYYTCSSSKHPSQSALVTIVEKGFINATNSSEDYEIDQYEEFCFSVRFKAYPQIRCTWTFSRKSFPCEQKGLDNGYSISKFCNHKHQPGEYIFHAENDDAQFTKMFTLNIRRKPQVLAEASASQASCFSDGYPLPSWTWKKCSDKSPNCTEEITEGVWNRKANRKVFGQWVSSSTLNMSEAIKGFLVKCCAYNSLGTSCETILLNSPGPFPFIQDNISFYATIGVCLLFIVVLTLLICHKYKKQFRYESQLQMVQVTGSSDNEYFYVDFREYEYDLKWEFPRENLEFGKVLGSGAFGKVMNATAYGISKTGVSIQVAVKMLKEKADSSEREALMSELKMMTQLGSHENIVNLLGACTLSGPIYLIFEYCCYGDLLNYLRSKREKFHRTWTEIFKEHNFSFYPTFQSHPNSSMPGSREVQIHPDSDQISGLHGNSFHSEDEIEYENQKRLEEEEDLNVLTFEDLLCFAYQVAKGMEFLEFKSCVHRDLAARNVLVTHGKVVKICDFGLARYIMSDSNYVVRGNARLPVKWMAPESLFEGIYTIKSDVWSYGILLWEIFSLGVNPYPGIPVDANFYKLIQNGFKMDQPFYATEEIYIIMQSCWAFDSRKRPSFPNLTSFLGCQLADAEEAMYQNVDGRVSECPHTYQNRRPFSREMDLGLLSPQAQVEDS
# Experiment: Cell proliferation assay (CellTiter-Glo), engineered BA/F3 cells
# Format: cell-based, murine
# Conditions: BaF3 FLT3 ITD/D835Y cells, 3d-Growth; read-out: BaF3_FLT3 ITD/D835Y 3d-Growth: IC50
# Method in brief: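 MOLM-14 AML cells (endogenous FLT3 ITD, AC220-selected D835Y or F691L variants) or murine Ba/F3 expressing full-length FLT3 ITD/D835Y, without IL-3 for FLT3 dependence, 1×10^4 cells/well. Eight-point 1:3 series from 1 μM final, 0.2% DMSO, 3 days at 37 °C. CellTiter-Glo luminescence (ATP) gave IC50.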
row,SMILES,GI50
1,"CONC(=O)c1cccc(-c2cnc3[nH]c(-c4ccccc4)cc3c2)c1 [Compound P-0003, N-methoxy-3-(2-phenyl-1H-pyrrolo[2,3-b]pyridin-5-yl)benzamide]",0.0001 to 10 µM
2,"C#Cc1cc2cc(-c3cccc(S(=O)(=O)NC4CC4)c3)cnc2[nH]1 [Compound P-0004, N-cyclopropyl-3-(2-ethynyl-1H-pyrrolo[2,3-b]pyridin-5-yl)benzenesulfonamide]",0.0001 to 10 µM
3,"NC(=O)Nc1ccc(-c2cnc3[nH]c(-c4ccccc4)cc3c2)cc1 [Compound P-0005, [4-(2-phenyl-1H-pyrrolo[2,3-b]pyridin-5-yl)phenyl]urea]",0.0001 to 10 µM
4,"CNC(=O)Nc1ccc(-c2cnc3[nH]c(-c4ccccc4)cc3c2)cc1 [Compound P-0006, 1-methyl-3-[4-(2-phenyl-1H-pyrrolo[2,3-b]pyridin-5-yl)phenyl]urea]",0.0001 to 10 µM
5,"CN(C)S(=O)(=O)Nc1cccc(-c2cnc3[nH]c(-c4ccccc4)cc3c2)c1 [Compound P-0007, 5-[3-(dimethylsulfamoylamino)phenyl]-2-phenyl-1H-pyrrolo[2,3-b]pyridine]",0.0001 to 10 µM
6,"O=S(=O)(NC1CC1)c1cccc(-c2cnc3[nH]c(C#CCO)cc3c2)c1 [Compound P-0008, N-cyclopropyl-3-[2-(3-hydroxyprop-1-ynyl)-1H-pyrrolo[2,3-b]pyridin-5-yl]benzenesulfonamide]",0.0001 to 10 µM
7,"CN(C)CC#Cc1cc2cc(-c3cccc(S(=O)(=O)NC4CC4)c3)cnc2[nH]1 [Compound P-0009, N-cyclopropyl-3-[2-[3-(dimethylamino)prop-1-ynyl]-1H-pyrrolo[2,3-b]pyridin-5-yl]benzenesulfonamide]",0.0001 to 10 µM
8,"O=S(=O)(NC1CC1)c1cccc(-c2cnc3[nH]c(C#CC4CCCCC4)cc3c2)c1 [Compound P-0010, 3-[2-(2-cyclohexylethynyl)-1H-pyrrolo[2,3-b]pyridin-5-yl]-N-cyclopropyl-benzenesulfonamide]",0.0001 to 10 µM
9,"CC(C)(C)OC(=O)NC1CCN(C(=O)c2n[nH]c3ccc(-c4cnc5[nH]c(-c6ccccc6)cc5c4)cc23)CC1 [Compound P-0011, tert-butyl N-[1-[5-(2-phenyl-1H-pyrrolo[2,3-b]pyridin-5-yl)-1H-indazole-3-carbonyl]-4-piperidyl]carbamate]",0.0001 to 10 µM
10,"NC1CCN(C(=O)c2n[nH]c3ccc(-c4cnc5[nH]c(-c6ccccc6)cc5c4)cc23)CC1 [Compound P-0012, (4-amino-1-piperidyl)-[5-(2-phenyl-1H-pyrrolo[2,3-b]pyridin-5-yl)-1H-indazol-3-yl]methanone]",0.0001 to 10 µM
11,"NC1CCN(C(=O)c2cccc(-c3cnc4[nH]c(-c5ccccc5)cc4c3)n2)CC1 [Compound P-0013, (4-amino-1-piperidyl)-[6-(2-phenyl-1H-pyrrolo[2,3-b]pyridin-5-yl)-2-pyridyl]methanone]",0.0001 to 10 µM
12,"O=S(=O)(NC1CC1)c1cccc(-c2cnc3[nH]c(C#Cc4ccccc4)cc3c2)c1 [Compound P-0014, N-cyclopropyl-3-[2-(2-phenylethynyl)-1H-pyrrolo[2,3-b]pyridin-5-yl]benzenesulfonamide]",0.0001 to 10 µM
13,"N[C@H]1CCN(C(=O)c2cccc(-c3cnc4[nH]c(-c5ccccc5)cc4c3)n2)C1 [Compound P-0015, [(3S)-3-aminopyrrolidin-1-yl]-[6-(2-phenyl-1H-pyrrolo[2,3-b]pyridin-5-yl)-2-pyridyl]methanone]",0.0001 to 10 µM
14,"N[C@H]1CCN(C(=O)c2n[nH]c3ccc(-c4cnc5[nH]c(-c6ccccc6)cc5c4)cc23)C1 [Compound P-0016, [(3S)-3-aminopyrrolidin-1-yl]-[5-(2-phenyl-1H-pyrrolo[2,3-b]pyridin-5-yl)-1H-indazol-3-yl]methanone]",0.0001 to 10 µM
15,"CC(C)(C)OC(=O)NC1CCN(C(=O)c2cccc(-c3cnc4[nH]c(-c5ccccc5)cc4c3)n2)CC1 [Compound P-0017, tert-butyl N-[1-[6-(2-phenyl-1H-pyrrolo[2,3-b]pyridin-5-yl)pyridine-2-carbonyl]-4-piperidyl]carbamate]",0.0001 to 10 µM
16,"NC1CCC(NC(=O)c2cccc(-c3cnc4[nH]c(-c5ccccc5)cc4c3)n2)CC1 (stereo not drawn) [Compound P-0018, N-(4-aminocyclohexyl)-6-(2-phenyl-1H-pyrrolo[2,3-b]pyridin-5-yl)pyridine-2-carboxamide]",0.0001 to 10 µM
17,"CC(=O)NC1CCN(C(=O)c2cccc(-c3cnc4[nH]c(-c5ccccc5)cc4c3)n2)CC1 [Compound P-0020, N-[1-[6-(2-phenyl-1H-pyrrolo[2,3-b]pyridin-5-yl)pyridine-2-carbonyl]-4-piperidyl]acetamide]",0.0001 to 10 µM
18,"CC(=O)NC1CCN(C(=O)c2n[nH]c3ccc(-c4cnc5[nH]c(-c6ccccc6)cc5c4)cc23)CC1 [Compound P-0021, N-[1-[5-(2-phenyl-1H-pyrrolo[2,3-b]pyridin-5-yl)-1H-indazole-3-carbonyl]-4-piperidyl]acetamide]",0.0001 to 10 µM
19,"CN1CCC(NC(=O)c2n[nH]c3ccc(-c4cnc5[nH]c(-c6ccccc6)cc5c4)cc23)CC1 [Compound P-0022, N-(1-methyl-4-piperidyl)-5-(2-phenyl-1H-pyrrolo[2,3-b]pyridin-5-yl)-1H-indazole-3-carboxamide]",0.0001 to 10 µM
20,"O=C(c1cccc(-c2cnc3[nH]c(-c4ccccc4)cc3c2)n1)N1CCC(CO)CC1 [Compound P-0023, [4-(hydroxymethyl)-1-piperidyl]-[6-(2-phenyl-1H-pyrrolo[2,3-b]pyridin-5-yl)-2-pyridyl]methanone]",0.0001 to 10 µM
21,"CCOC(=O)C1CCN(C(=O)c2cccc(-c3cnc4[nH]c(-c5ccccc5)cc4c3)n2)CC1 [Compound P-0025, ethyl 1-[6-(2-phenyl-1H-pyrrolo[2,3-b]pyridin-5-yl)pyridine-2-carbonyl]piperidine-4-carboxylate]",0.0001 to 10 µM
22,"NCC1CCN(C(=O)c2cccc(-c3cnc4[nH]c(-c5ccccc5)cc4c3)n2)CC1 [Compound P-0026, [4-(aminomethyl)-1-piperidyl]-[6-(2-phenyl-1H-pyrrolo[2,3-b]pyridin-5-yl)-2-pyridyl]methanone]",0.0001 to 10 µM
23,"CC1CCN(C(=O)c2n[nH]c3ccc(-c4cnc5[nH]c(-c6ccccc6)cc5c4)cc23)CC1 [Compound P-0027, (4-methyl-1-piperidyl)-[5-(2-phenyl-1H-pyrrolo[2,3-b]pyridin-5-yl)-1H-indazol-3-yl]methanone]",0.0001 to 10 µM
24,"CNC1CCN(C(=O)c2n[nH]c3ccc(-c4cnc5[nH]c(-c6ccccc6)cc5c4)cc23)C1 (stereo not drawn) [Compound P-0028, [3-(methylamino)pyrrolidin-1-yl]-[5-(2-phenyl-1H-pyrrolo[2,3-b]pyridin-5-yl)-1H-indazol-3-yl]methanone]",0.0001 to 10 µM
25,"CNC1CCN(C(=O)c2cccc(-c3cnc4[nH]c(-c5ccccc5)cc4c3)n2)C1 (stereo not drawn) [Compound P-0040, [3-(methylamino)pyrrolidin-1-yl]-[6-(2-phenyl-1H-pyrrolo[2,3-b]pyridin-5-yl)-2-pyridyl]methanone]",0.0001 to 10 µM
26,"CNC1CCN(C(=O)c2cccc(-c3cnc4[nH]c(-c5cn(C)nc5C)cc4c3)n2)C1 (stereo not drawn) [Compound P-0049, [6-[2-(1,3-dimethylpyrazol-4-yl)-1H-pyrrolo[2,3-b]pyridin-5-yl]-2-pyridyl]-[3-(methylamino)pyrrolidin-1-yl]methanone]",0.0001 to 10 µM
27,"c1ccc(-c2cc3cc(-c4cccc(OC5CCNCC5)n4)cnc3[nH]2)cc1 [Compound P-0050, 2-phenyl-5-[6-(4-piperidyloxy)-2-pyridyl]-1H-pyrrolo[2,3-b]pyridine]",0.0001 to 10 µM
28,"CNC1CN(C(=O)c2cccc(-c3cnc4[nH]c(-c5ccccc5)cc4c3)n2)C1 [Compound P-0052, [3-(methylamino)azetidin-1-yl]-[6-(2-phenyl-1H-pyrrolo[2,3-b]pyridin-5-yl)-2-pyridyl]methanone]",0.0001 to 10 µM
29,"N[C@H]1CCN(C(=O)c2ncc(-c3cnc4[nH]c(-c5ccccc5)cc4c3)s2)C1 [Compound P-0054, [(3S)-3-aminopyrrolidin-1-yl]-[5-(2-phenyl-1H-pyrrolo[2,3-b]pyridin-5-yl)thiazol-2-yl]methanone]",0.0001 to 10 µM
30,"CNC1CCN(C(=O)c2cccc(-c3cnc4[nH]c(-c5ccc(F)cc5)cc4c3)n2)C1 (stereo not drawn) [Compound P-0055, [6-[2-(4-fluorophenyl)-1H-pyrrolo[2,3-b]pyridin-5-yl]-2-pyridyl]-[3-(methylamino)pyrrolidin-1-yl]methanone]",0.0001 to 10 µM
